Experimental data: patent publication US7932272B2, “Antifungal agent containing heterocyclic compound” (Eisai R&D Management Co., Ltd., priority 2003, dated 2011)
In brackets after ≈: the same amount, converted by molar mass.

What was measured:
[1] = tested on: C. albicans E81022 strain; assay: Anti-Candida activity (MIC measurement); assay type: cell-based; conditions: E81022STRAIN, MIC by visual inspection, C. albicans E81022, 48 hours at 30 to 35° C.
Description: (§1) For the C. albicans E81022 strain, a fungal suspension from a standing culture for 48 hours at 30° C. in a Sabouraud dextrose liquid culture medium (SDB) was diluted 10,000-fold with a 1.3-fold concentrated SDB to adjust to a fungal suspension of 1 to 2×10^4 cells/ml. For the A. fumigatus Tsukuba strain, −80° C. stored strain was diluted 1,000-fold with a 1.3-fold concentrated SDB to adjust to a fungal suspension of 2 to 3×10^3 cells/ml.
(§2) Using a U-bottomed 96 well plate, 8 samples/plate (A to H) of sample dilution solutions were prepared. On the 3rd row of each plate was dispensed 240 μl of sterilized and distilled water, and on the 2nd and 4th to 12th rows were dispensed 125 μl of 4% dimethylsulfoxide solution. Weighed sample was dissolved in dimethylsulfoxide to prepare a 2.5 to 20 mg/ml solution, 10 μl of this solution was then added to the 3rd row of the prepared plate, and 10 steps of two-fold step dilutions (125 μl of solution+125 μl of 4% dimethylsulfoxide) were performed on the plate.
(§3) The fungal suspension preprared in (1) was used in the amount of 75 μl/well to inoculate a V-bottomed or flat-bottomed 96 well plate containing 25 μl/well of test compound dilution solution prepared in (2), and a standing culture was carried out aerobically for 48 hours at 30 to 35° C.

[2] = tested on: A. fumigatus Tsukuba strain; assay: Anti-Aspergillus activity (MIC measurement); assay type: cell-based; conditions: MIC by visual inspection, 48 hours at 30 to 35° C.
Description: as §1, §2, §3

| Structure (SMILES) | MIC [1] [µg/mL] | MIC [2] [µg/mL] |
| --- | --- | --- |
| Nc1ccc(NCCNc2ccc(C(=O)NCc3ccc(Oc4ccccc4)s3)c(N)n2)cc1 [Example A-92, 2-Amino(2-(4-amino-phenylamine)-ethylamino)-N-(5-phenoxy-thiophen-2-ylmethyl)-nicotinamide] | 3.13 (≈ 6.6 µM) | – |
| O=C(NCc1ccc(Oc2ccccc2)s1)c1ccc2ncsc2c1 [Example L-7, Benzothiazole-6-carboxylic acid (5-phenoxythiophen-2-ylmethyl)-amide] | 0.1 (≈ 0.273 µM) | 0.78 (≈ 2.13 µM) |
| O=C(NCc1cccc(Oc2ccccc2)c1)c1ccc2nsnc2c1 [Example M-1, Benzo[1,2 5]thiadiazole-5-carboxylic acid 3-phenoxybenzylamide] | 1.56 (≈ 4.32 µM) | 1.56 (≈ 4.32 µM) |
| O=C(NCc1ccc(OCc2cccc(F)c2)cc1)c1ccc2ncsc2c1 [Example L-4, Benzothiazole-6-carboxylic acid 4-(3-fluoro-benzyloxy)-benzylamide] | 0.2 (≈ 0.51 µM) | 0.2 (≈ 0.51 µM) |
| Nc1nc(OCCO)ccc1C(=O)NCc1ccc(Oc2ccccc2)s1 [Example A-112, 2-Amino-6-(2-hydroxyethoxy)-N-(5-phenoxy-thiophen-2-ylmethyl)-nicotinamide] | 3.13 (≈ 8.12 µM) | 6.25 (≈ 16.2 µM) |
| O=C(NCc1ccn(Cc2ccccc2)c1)c1ccc2ncccc2c1 [Example E-57, Quinoline-6-carboxylic acid (1-benzyl-1H-pyrrol-3-ylmethyl)-amide] | 0.2 (≈ 0.586 µM) | 6.25 (≈ 18.3 µM) |
| O=C(NCc1cccc(Oc2ccccc2)c1)c1ccc2cnccc2c1 [Example G-1, Isoquinoline-6-carboxylic acid 3-phenoxybenzylamide] | 6.25 (≈ 17.6 µM) | – |
| CO/N=C(\NCc1ccc(OCc2ccccc2)cc1)c1ccc2ncccc2c1 [Example E-44, N-(4-Benzyloxy-benzyl)-N′-methoxy-quinoline-6-carboxamidine] | 3.13 (≈ 7.87 µM) | – |
| Nc1nc(NCC(=O)O)ccc1C(=O)NCc1ccc(Oc2ccccc2)s1 [Example A-99, (6-Amino-5-((5-phenoxy-thiophen-2-ylmethyl)-carbamoyl)-pyridin-2-ylamino)-acetic acid] | 3.13 (≈ 7.86 µM) | 6.25 (≈ 15.7 µM) |
| O=C(Cc1cccc(Oc2ccccc2)c1)Nc1ccc2ncccc2c1 [Example E-19, 2-(3-Phenoxy-phenyl)-N-quinolin-6-yl-acetamide] | 0.78 (≈ 2.2 µM) | 1.56 (≈ 4.4 µM) |
| c1ccc(COc2ccc(CNc3ccc4ncccc4c3)cc2)cc1 [Example W-2, (4-Benzyloxy-benzyl)-quinolin-6-yl-amine] | 1.56 (≈ 4.58 µM) | 0.78 (≈ 2.29 µM) |
| O=C(NCc1cccc(Oc2ccccc2)c1)c1ccc2[nH]ccc2c1 [Example V-1, 1H-Indole-5-carboxylic acid 3-phenoxybenzylamide] | – | 6.25 (≈ 18.3 µM) |
| O=C(NCc1ccc(OCc2ccccc2)cc1)c1ccc2ncccc2n1 [Example D-2, [1.5]Naphthylidine-2-carboxylic acid 4-benzyloxybenzylamide] | 0.78 (≈ 2.11 µM) | 0.78 (≈ 2.11 µM) |
| Nc1nc(NCc2ccco2)ccc1C(=O)NCc1ccc(Oc2ccccc2)s1 [Example A-82, 2-Amino-6-(furfurylamino)-N-(5-phenoxy-thiophen-2-ylmethyl)-nicotinamide] | 0.2 (≈ 0.476 µM) | 1.56 (≈ 3.71 µM) |
| CNc1ncccc1C(=O)NCc1ccc(Oc2ccccc2)s1 [Example A-136, 2-Methylamino-N-(5-phenoxy-thiophen-2-ylmethyl)-nicotinamide] | 1.56 (≈ 4.6 µM) | – |
| Nc1ncncc1C(=O)NCc1ccc(Oc2ccccc2)s1 [Example B-1, 4-Amino-pyrimidine-5-carboxylic acid (5-phenoxy-thiophen-2-ylmethyl)-amide] | 3.13 (≈ 9.59 µM) | 6.25 (≈ 19.1 µM) |
| Cc1nc2ccc(C(=O)NCc3cccc(Oc4ccccc4)c3)cc2o1 [Example K-1, 2-Methyl-benzoxazole-6-carboxylic acid 3-phenoxybenzylamide] | 0.78 (≈ 2.18 µM) | 1.56 (≈ 4.35 µM) |
| Nc1ccc(C(=O)NCc2ccc(Oc3ccc(F)cc3)s2)cn1 [Example A-139, 6-Amino-N-(5-(4fluoro-phenoxy)-thiophen-2-ylmethyl)-nicotinamide] | 1.56 (≈ 4.54 µM) | 1.56 (≈ 4.54 µM) |
| Nc1nc(NCCCn2nccn2)ccc1C(=O)NCc1ccc(Oc2ccccc2)s1 [Example A-81, 2-Amino-N-(5-phenoxy-thiophen-2-ylmethyl)-6-(3-[1,2,3]-triazol-2-yl-propylamino)-nicotinamide] | 3.13 (≈ 6.96 µM) | 6.25 (≈ 13.9 µM) |
| O=C(NCc1cccc(Oc2ccccc2)c1)c1ccc2nccnc2c1 [Example I-1, Quinoxaline-6-carboxylic acid 3-phenoxybenzylamide] | 0.78 (≈ 2.19 µM) | 1.56 (≈ 4.39 µM) |
| O=C(NCc1ccc(Oc2ccccc2)s1)c1cnc2ccsc2c1 [Example U-2, Thieno[3,2-b]pyridine-6-carboxylic acid (5-phenoxy-thiophen-2-yl methyl)-amide] | 0.78 (≈ 2.13 µM) | 3.13 (≈ 8.54 µM) |

| Structure (SMILES) | MIC [1] [µg/mL] | MIC [2] [µg/mL] |
| --- | --- | --- |
| O=C(NCc1cccc(OCC2CC2)c1)c1ccc2ncccc2c1 [Example E-43, Quinoline-6-carboxylic acid 3-cyclopropylmethoxy-benzylamide] | 0.39 (≈ 1.17 µM) | – |
| Nc1ncccc1C(=O)NCc1ccc(CCNc2ccccc2)o1 [Example A-8, 2-Amino-N-(5-(2-phenylamino-ethyl)-furan-2-ylmethyl)-nicotinamide] | 3.13 (≈ 9.3 µM) | 6.25 (≈ 18.6 µM) |
| Nc1ncccc1C(=O)NCc1ccc(Cc2ccccc2)o1 [Example A-5, 2-Amino-N-(5-benzyl-furan-2-ylmethyl)-nicotinamide] | 0.2 (≈ 0.651 µM) | 0.78 (≈ 2.54 µM) |
| O=C(NCc1cccc(C=C2CCCC2)c1)c1ccc2ncccc2c1 [Example E-51, 6-Quinolinecarboxylic acid 3-cyclopentylydenemethylbenzylamide] | 0.78 (≈ 2.28 µM) | 3.13 (≈ 9.14 µM) |
| O=C(NCc1cccc(Oc2ccccc2)c1)c1ccc2ncccc2c1 [Example E-11, Quinoline-6-carboxylic acid 3-phenoxybenzylamide] | 0.39 (≈ 1.1 µM) | 1.56 (≈ 4.4 µM) |
| O=C(NCc1cc(Oc2cccc(F)c2)cs1)c1ccc2ncccc2c1 [Example E-69, Quinoline-6-carboxylic acid (4-(3-fluoro-phenoxy)-thiophen-2-ylmethyl)-amide] | 0.1 (≈ 0.264 µM) | 1.56 (≈ 4.12 µM) |
| O=C(NCc1ccc(Oc2ccccc2)s1)c1ccc2nccn2c1 [Example Q-7, Imidazo[1,2-a]pyridine-6-carboxylic acid (5-phenoxy-thiophen-2-ylmethyl)-amide] | 0.39 (≈ 1.12 µM) | 6.25 (≈ 17.9 µM) |
| O=C(NCc1cccc(Oc2ccccc2)c1)c1ccc2nnccc2c1 [Example F-1, Cinnoline-6-carboxylic acid 3-phenoxy-benzylamide] | 3.13 (≈ 8.81 µM) | – |
| Nc1nc(NCc2ccc(OCc3ccccc3)cc2)c2cccnc2n1 [Example Y-1, N*4*-(4-Benzyloxy-benzyl)-pyrido[2,3-d]pyrimidine-2,4-diamine] | 0.78 (≈ 2.18 µM) | 6.25 (≈ 17.5 µM) |
| Cc1ccc(Cc2ccc(CNC(=O)c3ccc4ncccc4c3)s2)s1 [Example E-73, Quinoline-6-carboxylic acid (5-(5-methyl-thiophen-2-ylmethyl)-thiophen-2-ylmethyl)-amide] | 0.2 (≈ 0.528 µM) | 0.78 (≈ 2.06 µM) |
| Nc1nc(Cl)ccc1C(=O)NCc1ccc(Oc2ccccc2)s1 [Example A-101, 2-Amino-6-chloro-N-(5-phenoxy-thiophen-2-ylmethyl)-nicotinamide] | 0.1 (≈ 0.278 µM) | 0.39 (≈ 1.08 µM) |
| O=C(NCc1cccc(-c2ccccc2)c1)c1ccc2ncccc2c1 [Example E-13, Quinoline-6-carboxylic acid (biphenyl-3-ylmethyl)-amide] | 0.78 (≈ 2.3 µM) | 1.56 (≈ 4.61 µM) |
| O=C(NCc1ccc(OCc2ccccc2)cc1)c1ccc2ncccc2c1 [Example E-8, quinoline-6-carboxylic acid 4-benzyloxybenzylamide] | 0.2 (≈ 0.543 µM) | 0.2 (≈ 0.543 µM) |
| N#Cc1cccc(Oc2ccc(CNC(=O)c3ccc4ncccc4c3)s2)c1 [Example E-64, Quinoline-6-carboxylic acid (5-(3-cyano-phenoxy)-thiophen-2-ylmethyl)-amide] | 0.2 (≈ 0.519 µM) | 6.25 (≈ 16.2 µM) |
| Nc1nc2c(cc1C(=O)NCc1ccc(Oc3ccccc3)s1)CCC2 [Example C-1] | 0.1 (≈ 0.274 µM) | – |
| N#C/N=C(\NCc1ccc(OCc2ccccc2)cc1)c1ccc2ncccc2c1 [Example E-45, N-(4-Benzyloxy-benzyl)-N′-cyano-quinoline-6-carboxamidine] | 3.13 (≈ 7.98 µM) | 3.13 (≈ 7.98 µM) |
| COCCCc1ccc(C(=O)NCc2ccc(Oc3ccccc3)s2)c(N)n1 [Example A-124, 2-Amino-6-(3-methoxy-propyl)-N-(5-phenoxy-thiophen-2-ylmethyl)-nicotinamide] | 1.56 (≈ 3.92 µM) | – |
| Cc1ccc(C(=O)NCc2ccc(OCc3ccccc3)cc2)c(N)n1 [Example A-37, 2-Amino-N-(4-benzyloxy-benzyl)-6-methyl-nicotinamide] | 0.39 (≈ 1.12 µM) | 3.13 (≈ 9.01 µM) |
| O=C(O)CCNc1ncccc1C(=O)NCc1ccc(Oc2ccccc2)s1 [Example A-131] | 1.56 (≈ 3.92 µM) | 6.25 (≈ 15.7 µM) |
| Cc1sc(CNC(=O)c2cccnc2N)cc1Oc1ccccc1 [Example A-170, 2-Amino-N-(5-methyl-4-phenoxy-thiophen-2-ylmethyl)-nicotinamide] | 0.78 (≈ 2.3 µM) | – |
| O=C(NCc1ccc(Nc2ccccc2)cc1)c1ccc2ncccc2c1 [Example E-25, Quinoline-6-carboxylic acid 4-phenylamino-benzylamide] | 1.56 (≈ 4.41 µM) | – |
